Some test systems named below: 786-0; A549; DU-145; EKVX; HOP-62; HT-29; Hs-578T; M14; MDA-N; NCI/ADR-RES; OVCAR-5; OVCAR-8; RXF 393; SF-295; SK-MEL-5; SN12C; SNB-19; U-251; UACC-257; SK-MEL-2.
What all share (experiment): NCI-60 cell line screen, 48 h

Here are results for eleven molecules from ChEMBL document CHEMBL1201862, “PubChem BioAssay data set” (2004).

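1) Cells in 96-well plates. 2) Compound, 48 h, 5 concentrations. 3) Linear interpolation between surrounding doses. 4) Unreached endpoint = highest concentration. The concentration for 50% growth inhibition is given as GI50.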 The source made the active and inactive calls. Cut-off read from the data, not from the text of the source: active = GI50 up to about 1.1 µM and inactive = higher. Square brackets hold non-standard residues; d marks the D form. Peptide text beside a SMILES is read from it. * marks the point of attachment. X26 = COC1=CC(=O)N(C(=O)[C@@H](O*)C(C)C)[C@H]1Cc1ccccc1; NMeV = CN[C@H](C(=O)O)C(C)C; Hexanoyl = CCCCCC(=O)* Some results are limits rather than exact numbers.

For the molecule `Nc1ccccc1/N=N/c1c(S(=O)(=O)O)cc2cc(S(=O)(=O)O)cc(O)c2c1O`, the GI50 with 786-0 is 45.7 µM (inactive); with A549, > 100 µM (inactive); in the assay with DU-145, > 100 µM (inactive); in the assay with EKVX, > 100 µM (inactive); with HOP-62 it was > 100 µM (inactive); in the assay on HT-29, > 100 µM (inactive). The GI50 in the assay on Hs-578T was > 100 µM (inactive); with M14, > 100 µM (inactive); in the assay with MDA-N it was 32.4 µM (inactive); with NCI/ADR-RES, > 100 µM (inactive); in the assay on OVCAR-5, > 100 µM (inactive); with OVCAR-8, > 100 µM (inactive). Besides, the GI50 was > 100 µM (inactive) with RXF 393; > 100 µM (inactive) with SF-295; > 100 µM (inactive) with SK-MEL-5; 11.2 µM (inactive) with SN12C; > 100 µM (inactive) in the assay on SNB-19; > 100 µM (inactive) with U-251. The GI50 with UACC-257 was > 100 µM (inactive).
For the molecule `Cc1cc(C)cc(Nc2cc(O)nc(O)n2)c1`, the GI50 in the assay on 786-0, with A549, in the assay with DU-145, in the assay with EKVX, with HOP-62 and in the assay with HT-29 was > 100 µM (inactive) in each case. Also, the GI50 with Hs-578T, in the assay with M14, with MDA-N, in the assay on NCI/ADR-RES, in the assay with OVCAR-5 and in the assay with OVCAR-8 was > 100 µM (inactive) each time. The GI50 was 90.4 µM (inactive) in the assay on RXF 393; > 100 µM (inactive) in the assay on SF-295; > 100 µM (inactive) in the assay with SK-MEL-5; > 100 µM (inactive) in the assay on SN12C; > 100 µM (inactive) in the assay with SNB-19; > 100 µM (inactive) in the assay with U-251. Besides, the GI50 with UACC-257 is > 100 µM (inactive).
For `C=CCOC(=O)N1[C@H]2C#C/C=C\C#C[C@]3(O)C(=O)C[C@H](C)[C@]24O[C@]43C2=CC(=O)C=CC21OC` (stereo partly specified), the GI50 is 11.6 µM (inactive) in the assay with 786-0; 23.2 µM (inactive) in the assay with A549; 38.7 µM (inactive) in the assay with DU-145; 44 µM (inactive) in the assay on EKVX; 40.2 µM (inactive) in the assay with HOP-62; 27.7 µM (inactive) with HT-29. Moreover, the GI50 in the assay on Hs-578T was 49 µM (inactive); in the assay with M14, 20.4 µM (inactive); in the assay with MDA-N, 28.6 µM (inactive); with NCI/ADR-RES, 43.8 µM (inactive); in the assay on OVCAR-5, 35.2 µM (inactive); with OVCAR-8 it was 22.5 µM (inactive). Also, the GI50 in the assay on RXF 393 is 20.9 µM (inactive); with SF-295, 44 µM (inactive); in the assay on SK-MEL-2, 18 µM (inactive); in the assay on SN12C, 25 µM (inactive); in the assay with SNB-19, 38.3 µM (inactive); in the assay on U-251, 37.7 µM (inactive). In the assay on UACC-257, the GI50 was 19.4 µM (inactive).
For `O=c1[nH]c(=O)n(CCOc2ccccc2)cc1Nc1ccccc1`, the GI50 was 61.2 µM (inactive) with 786-0; > 100 µM (inactive) in the assay on A549; > 100 µM (inactive) in the assay on DU-145; > 100 µM (inactive) in the assay with EKVX; 22.3 µM (inactive) in the assay on HOP-62; > 100 µM (inactive) in the assay on HT-29. The GI50 in the assay with Hs-578T was 52.5 µM (inactive); in the assay with M14, > 100 µM (inactive); in the assay with MDA-N, > 100 µM (inactive); in the assay on NCI/ADR-RES, > 100 µM (inactive); in the assay with OVCAR-5 it was > 100 µM (inactive); in the assay with RXF 393 it was 37.3 µM (inactive). The GI50 in the assay with SF-295 is 41.8 µM (inactive); in the assay on SK-MEL-5, > 100 µM (inactive); in the assay on SN12C, > 100 µM (inactive); with SNB-19 it was > 100 µM (inactive); in the assay on U-251, > 100 µM (inactive); in the assay with UACC-257, > 100 µM (inactive).
Take `COc1cc2c3c(c1)CCCN3CCC2`: the GI50 in the assay with 786-0, with A549, in the assay with DU-145, with EKVX, in the assay on HOP-62 and in the assay with HT-29 was > 10 µM (inactive) each time. Besides, the GI50 in the assay with Hs-578T, in the assay with M14, with MDA-N, in the assay on NCI/ADR-RES, with OVCAR-8 and with RXF 393 was > 10 µM (inactive) each time. Also, the GI50 in the assay on SF-295, with SK-MEL-2, in the assay on SK-MEL-5, with SN12C, in the assay with SNB-19 and with U-251 was > 10 µM (inactive) in each case. For the same molecule, the GI50 with UACC-257 was > 10 µM (inactive).
On to `C=C(Br)CNC(=O)Nc1ccc(Cl)c(Cl)c1`, for which the GI50 with 786-0 is 16 µM (inactive); in the assay with A549, 21.5 µM (inactive); in the assay on DU-145 it was 23.6 µM (inactive); in the assay with EKVX it was 28.1 µM (inactive); in the assay on HOP-62, 22.5 µM (inactive); in the assay on HT-29, 25.1 µM (inactive). In addition, the GI50 in the assay on Hs-578T is 22.7 µM (inactive); in the assay with M14 it was 22.2 µM (inactive); in the assay with MDA-N it was 27.3 µM (inactive); in the assay with NCI/ADR-RES, 16.6 µM (inactive); in the assay on OVCAR-5, 33.1 µM (inactive); with RXF 393, 18.5 µM (inactive). Also, the GI50 is 26 µM (inactive) with SF-295; 12.6 µM (inactive) in the assay with SK-MEL-2; 13.8 µM (inactive) with SK-MEL-5; 25.2 µM (inactive) with SN12C; 21.7 µM (inactive) in the assay on SNB-19; 22.6 µM (inactive) with U-251.
Turning to `CCCCCNC(=O)OC1CCn2c1nc1c2C(=O)C(C)=C(N2CC2)C1=O` (stereo unspecified), the GI50 with 786-0 was 0.455 µM (active); with A549, 0.526 µM (active); in the assay with DU-145, 0.351 µM (active); in the assay on HT-29, 0.593 µM (active); in the assay on Hs-578T it was 2.32 µM (inactive); in the assay on M14, 1.45 µM (inactive). In addition, the GI50 in the assay with MDA-N was 1.5 µM (inactive); in the assay on NCI/ADR-RES, 2.56 µM (inactive); in the assay on OVCAR-5, 3.05 µM (inactive); with OVCAR-8 it was 1.46 µM (inactive); with RXF 393, 0.543 µM (active); in the assay with SF-295, 1.2 µM (inactive). The GI50 in the assay with SK-MEL-2 was 1.63 µM (inactive); with SK-MEL-5, 0.568 µM (active); in the assay on SN12C it was 1.43 µM (inactive); in the assay on SNB-19 it was 2.9 µM (inactive); in the assay with U-251, 1.67 µM (inactive); with UACC-257 it was 1.67 µM (inactive).
Turning to `C=C1C(=O)OC2C1C(OC(=O)/C(C)=C/C)CC1(C)C(=O)CCC(=C)C21` (stereo unspecified), the GI50 was 4.02 µM (inactive) with 786-0; 19.2 µM (inactive) in the assay on A549; 8.07 µM (inactive) in the assay on DU-145; 16.3 µM (inactive) in the assay on EKVX; 16.9 µM (inactive) with HOP-62; 4.88 µM (inactive) with HT-29. Also, the GI50 is 27.8 µM (inactive) in the assay on Hs-578T; 5.26 µM (inactive) in the assay with M14; 5.07 µM (inactive) with MDA-N; 6.89 µM (inactive) in the assay on NCI/ADR-RES; 14.8 µM (inactive) with OVCAR-5; 12.1 µM (inactive) in the assay on OVCAR-8. Further, the GI50 in the assay with RXF 393 is 2.83 µM (inactive); in the assay with SF-295, 18.5 µM (inactive); with SK-MEL-2, 11.9 µM (inactive); in the assay with SK-MEL-5, 7.64 µM (inactive); with SN12C, 2.15 µM (inactive); with U-251, 13.1 µM (inactive). Besides, the GI50 with UACC-257 is 11.2 µM (inactive).
For `CCCCCC(=O)N[C@H](C(=O)N[C@H](C(=O)N(C)[C@H](C(=O)N1CCC[C@H]1C(=O)N1CCC[C@H]1C(=O)O[C@H](C(=O)N1C(=O)C=C(OC)[C@@H]1Cc1ccccc1)C(C)C)C(C)C)C(C)C)C(C)C` (Hexanoyl-VV[NMeV]PP-X26), the GI50 is 57.9 µM (inactive) in the assay on 786-0; > 100 µM (inactive) in the assay with DU-145; 85.9 µM (inactive) with EKVX; > 100 µM (inactive) with HOP-62; > 100 µM (inactive) in the assay on HT-29; 68.2 µM (inactive) in the assay with Hs-578T. Also, the GI50 in the assay on MDA-N is 33.8 µM (inactive); in the assay on NCI/ADR-RES it was > 100 µM (inactive); in the assay with OVCAR-5, 93.5 µM (inactive); in the assay with OVCAR-8, > 100 µM (inactive); in the assay on RXF 393, 23.2 µM (inactive); in the assay with SF-295 it was > 100 µM (inactive). In addition, the GI50 in the assay with SK-MEL-2 is 36.3 µM (inactive); with SN12C, 94.6 µM (inactive); in the assay on U-251, 43.8 µM (inactive); in the assay on UACC-257, 87.7 µM (inactive).
As for `COC[C@@H](/N=C/c1ccc(OC)cc1)C(C)C`, the GI50 with 786-0, in the assay with A549, in the assay with DU-145, in the assay on EKVX, in the assay on HOP-62 and in the assay on HT-29 was > 100 µM (inactive) each time. Besides, the GI50 in the assay with Hs-578T, in the assay on M14, with MDA-N, with NCI/ADR-RES, in the assay on OVCAR-5 and in the assay on OVCAR-8 was > 100 µM (inactive) throughout. Also, the GI50 in the assay with RXF 393, in the assay with SF-295, in the assay with SK-MEL-2, in the assay on SK-MEL-5, in the assay on SN12C and in the assay with U-251 was > 100 µM (inactive) in each case. Also, the GI50 in the assay on UACC-257 was > 100 µM (inactive).
For `COc1cccc2c(=O)oc(-c3ccccc3C)nc12`, the GI50 with 786-0 was 44.8 µM (inactive); in the assay on A549, 38.2 µM (inactive); with DU-145 it was 61 µM (inactive); in the assay with EKVX, > 100 µM (inactive); with HOP-62 it was 27.3 µM (inactive); in the assay on HT-29, 39 µM (inactive). Also, the GI50 is 43.5 µM (inactive) with Hs-578T; 19.8 µM (inactive) with MDA-N; 29.2 µM (inactive) in the assay on NCI/ADR-RES; 61.4 µM (inactive) with OVCAR-5; 48.8 µM (inactive) with OVCAR-8; 30 µM (inactive) in the assay with RXF 393. Also, the GI50 in the assay on SF-295 was 42.6 µM (inactive); in the assay with SK-MEL-2 it was 26.6 µM (inactive); with SK-MEL-5 it was 23 µM (inactive); in the assay on SN12C, 26.5 µM (inactive); in the assay with U-251, 45.4 µM (inactive).
